From paper PMC10017709, “Structural basis of selective cannabinoid CB2 receptor activation” (Nature Communications, 2023)

How the values were obtained:
CB1R activity = test: Mouse tetrad assay for CB1R activity; conditions: in vivo, po, 25 mg/kg
Protocol: To determine whether LEI-102 maintained its selectivity for CB2R over CB1R in vivo, LEI-102 was tested in the mouse tetrad assay for CB1R activity. In this assay, four consecutive behavioral tests, related to anti-nociception, hypothermia, catalepsy, and spontaneous activity, were performed 120 min after administration of the agonist. […] There were no effects on nociceptive behavior assessed in tail withdrawal test nor on body temperature (Fig. 6 upper row). No effect was found on locomotor behavior (Fig. 6 lower row) in case of distance traveled, time spent mobile, or running speed of mice.
The well-established model of cisplatin-induced nephropathy was used[63]. Mice (CB2R^−/− and CB2R^+/+) were sacrificed 72 h after a single injection of cisplatin (cis-diamine platinum (II) dichloride (Sigma#P4394) 25 mg/kg i.p.; freshly dissolved in physiological saline) by cervical dislocation under deep anesthesia with 5% isoflurane, for collection of blood and tissue samples. LEI-102 was given i.p. or by oral gavage (p.o.) at 0.3, 3.0, and 10 mg/kg every day, starting 1.5 h before the cisplatin exposure. The drug was dissolved in a vehicle of DMSO:Tween 80:saline, 1:1:18. After administration of LEI‐102, mice were killed by cervical dislocation under deep anesthesia with 5% isoflurane, for collection of blood and tissue samples at the time described in the figure. The tetrad assay in mice has previously been described in detail.

[1] = tested on: chronic abdominal pain associated with Crohn’s disease; conditions: 14 patients with chronic abdominal pain associated with Crohn’s disease; cited from earlier work

With `CC(C)CN1C(=O)CN(Cc2ccc(-c3ccc(F)c(CNC4CCOCC4)n3)cc2)C1=O` [LEI-102, 1-(4-(5-fluoro-6-(((tetrahydro-2H-pyran-4-yl)amino)methyl)pyridin-2-yl)benzyl)-3-isobutylimidazolidine-2,4-dione] the catalepsy (CB1R activity) was “Nor was catalepsy observed”, the “effects in the tetrad assay as compared with vehicle” value (CB1R activity) was “did not produce any effects” and the “Tail withdrawal (%MPE)” value (CB1R activity; 120 min) was 30.0 %MPE.

For `CC(C)(C)[C@@H](CO)NC(=O)c1nn(-c2c[n+]([O-])ccn2)c2c1C[C@@H]1C[C@H]21` [APD371], the abdominal pain scores [1] is listed as “improvement” and the adverse events [1] is listed as “mild-to-moderate adverse events”.
